Assay results published in PubChem BioAssay AID812 (SRMLSC, 2007).
Activity calls are given as the source filed them. The rule behind the calls is not given here.

Each molecule was assayed on Saccharomyces cerevisiae lifespan extension, no nicotinamide (assay: yeast lifespan extension without nicotinamide, confirmation, yeast lifespan extension project, S. cerevisiae (AID 812);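 note: growth read as optical density after 42 hours of incubation at 30C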).

**Q.** CCCC(=Nc1ccccc1)C1=C(O)C(C(=O)OC)C(C)(C)CC1=O (stereo not given) was tested. Which EC50 did it give?
**A.** > 40 µM (inactive)

**Q.** For Cn1nnnc1SCCNCC#Cc1ccccc1, which EC50 is on record?
**A.** > 40 µM (inactive)

**Q.** With CCOC(=O)C1=C(N)OC2=C(C(=O)CCC2)C1c1sccc1C (stereo not given) as the molecule, how does the EC50 read?
**A.** > 40 µM (inactive)

**Q.** How did the EC50 turn out when O=C(NC(=S)NNC(=O)c1ccccc1O)c1ccco1 was run?
**A.** > 40 µM (inactive)

**Q.** How did the EC50 turn out when O=C(Nc1cccnc1)c1c(O)c2cccc3c2n(c1=O)CC3 was run?
**A.** > 40 µM (inactive)

**Q.** For COc1cc(/C=c2\sc3nc(-c4ccncc4)nn3c2=O)ccc1OC(C)=O, which EC50 is on record?
**A.** > 40 µM (inactive)

**Q.** Which EC50 does the source give for C=C(C(=O)c1ccccc1)C(C)CC(=O)c1ccccc1 (stereo not given) here?
**A.** > 40 µM (inactive)

**Q.** How did the EC50 turn out when CCCCC1C(=O)CC[C@H]2[C@@H]1CC(=O)[C@@H]2C/C=C\CCCC(=O)O (stereo not given in full) was run?
**A.** > 40 µM (inactive)

**Q.** For CCOc1ccccc1/C=c1\sc2ncnn2c1=O, which EC50 is on record?
**A.** > 40 µM (inactive)

**Q.** With CCC(=O)Nc1ccccc1Sc1ncnc2scc(-c3ccccc3)c12 as the molecule, how does the EC50 read?
**A.** > 40 µM (inactive)

**Q.** O=C(COc1ccc2ccccc2c1)Nc1cccc(C(=O)Nc2ccccc2C(=O)O)c1 was tested. Which EC50 did it give?
**A.** > 40 µM (inactive)

**Q.** CC(=O)c1c(O)cc2n(c1=O)-c1ccc(Cl)cc1C2(C)C was tested. Which EC50 did it give?
**A.** > 40 µM (inactive)

**Q.** Which EC50 does the source give for c1ccc(-c2c(-c3ccccc3)n(Cc3ccco3)c3ncnc(NCCCn4ccnc4)c23)cc1 here?
**A.** > 40 µM (inactive)

**Q.** How did the EC50 turn out when CCCCCC1CC1C(=O)N/N=C/c1ccc(N(C)C)cc1 (stereo not given) was run?
**A.** > 40 µM (inactive)

**Q.** For CCc1cc2c(=O)c(Oc3ccccc3)c(C)oc2cc1O, which EC50 is on record?
**A.** > 40 µM (inactive)

**Q.** For O=C(Nc1ccc(S(=O)(=O)N2CCc3ccccc3C2)cc1)c1ccccc1, which EC50 is on record?
**A.** > 40 µM (inactive)

**Q.** For CN1CCC2(CC1)C(C#N)=C(N)NC(S)=C2C#N, which EC50 is on record?
**A.** > 40 µM (inactive)

**Q.** For CCCCCOC(=O)CSc1nc2c(c(=O)[nH]c(=O)n2C)n1CCc1ccccc1, which EC50 is on record?
**A.** > 40 µM (inactive)

**Q.** Cn1c(SCC(=O)N2CCCc3ccccc32)nnc1-c1c[nH]c2ccccc12 was tested. Which EC50 did it give?
**A.** > 40 µM (inactive)

**Q.** COc1ccc2c(=O)c3c(=O)n(Cc4ccco4)c(-c4ccco4)nc3oc2c1 was tested. Which EC50 did it give?
**A.** > 40 µM (inactive)

**Q.** O=C(Nc1nccs1)c1ccc2c(=O)n3c(nc2c1)CCCCC3 was tested. Which EC50 did it give?
**A.** > 40 µM (inactive)

**Q.** O=C(Oc1cc(=O)n2ccccc2n1)c1ccccc1 was tested. Which EC50 did it give?
**A.** > 40 µM (inactive)

**Q.** How did the EC50 turn out when COc1ccc(CNC(=O)C2CCN(c3nc(OC)nc(OC)n3)CC2)cc1 was run?
**A.** > 40 µM (inactive)

**Q.** With COc1ccc(-c2cc(C(F)(F)F)nc(S(C)(=O)=O)n2)cc1 as the molecule, how does the EC50 read?
**A.** > 40 µM (inactive)

**Q.** With ClC(Cl)(c1nnnn1-c1ccccc1)c1nnnn1-c1ccccc1 as the molecule, how does the EC50 read?
**A.** > 40 µM (inactive)

**Q.** With CC(C)c1ccc2occ(-c3nn[nH]n3)c(=O)c2c1 as the molecule, how does the EC50 read?
**A.** > 40 µM (inactive)

**Q.** With Cc1cc(NS(=O)(=O)c2ccc(CC(C)C)cc2)no1 as the molecule, how does the EC50 read?
**A.** > 40 µM (inactive)

**Q.** Which EC50 does the source give for Oc1ccc2ccccc2c1C=Nc1ccc(N2CCOCC2)cc1 here?
**A.** > 40 µM (inactive)

**Q.** Which EC50 does the source give for CC1(C)Oc2ccccc2OC1(O)c1ccc2ccccc2n1 (stereo not given) here?
**A.** > 40 µM (inactive)

**Q.** With CC(=C1C(=O)c2ccccc2C1=O)N1CCN(c2ccccn2)CC1 as the molecule, how does the EC50 read?
**A.** > 40 µM (inactive)

**Q.** How did the EC50 turn out when CCc1ccc(CC2S/C(=C(\C#N)C(C)=O)NC2=O)cc1 (stereo not given) was run?
**A.** > 40 µM (inactive)

**Q.** Cc1ccc(NC(=O)Nc2nc(-c3ccc(C)s3)cs2)cc1 was tested. Which EC50 did it give?
**A.** > 40 µM (inactive)

**Q.** Which EC50 does the source give for CC(C)(C)C1CCc2[nH]nc(C(=O)O)c2C1 (stereo not given) here?
**A.** > 40 µM (inactive)

**Q.** For CCOC(=O)C(=Cc1ccc(F)cc1)C(=O)OCC, which EC50 is on record?
**A.** > 40 µM (inactive)

**Q.** How did the EC50 turn out when COc1ccc(C(=O)C(CN2CCOCC2)c2ccccc2)cc1 (stereo not given) was run?
**A.** > 40 µM (inactive)

**Q.** For CCCCn1c(=O)c2c(O)cc(=O)oc2c2ccccc21, which EC50 is on record?
**A.** > 40 µM (inactive)

**Q.** For CCCc1nc2c(c(=O)c3ccccc3n2C)c(=O)n1C1CCCCCC1, which EC50 is on record?
**A.** > 40 µM (inactive)

**Q.** Which EC50 does the source give for CN1CCN(C(=S)Nc2cc([N+](=O)[O-])ccc2Cl)CC1 here?
**A.** > 40 µM (inactive)

**Q.** For CCC1CCCCN1S(=O)(=O)c1ccc(S(=O)(=O)N(Cc2cccs2)C2CC2)cc1 (stereo not given), which EC50 is on record?
**A.** > 40 µM (inactive)

**Q.** With O=C(N/N=C/c1ccc(F)cc1)c1c(O)c2ccccc2[nH]c1=O as the molecule, how does the EC50 read?
**A.** > 40 µM (inactive)

**Q.** CC(C)(C)C(=O)Cn1c(=N)n(Cc2ccccc2)c2ccccc21 was tested. Which EC50 did it give?
**A.** > 40 µM (inactive)

**Q.** O=S1(=O)C=C(Sc2nc3ccccc3s2)c2ccccc21 was tested. Which EC50 did it give?
**A.** > 40 µM (inactive)

**Q.** Which EC50 does the source give for Cc1cc(C)n2cc(CSc3nnc(N)s3)nc2n1 here?
**A.** > 40 µM (inactive)

**Q.** Which EC50 does the source give for COc1ccc(CN2C(=O)/C(=C/c3ccncc3)SC2=S)cc1 here?
**A.** > 40 µM (inactive)

**Q.** Which EC50 does the source give for CCOc1cc(/C=C\[N+](=O)[O-])ccc1OCC(=O)Nc1ccccc1C here?
**A.** > 40 µM (inactive)

**Q.** CCn1ccc(C(=O)Nc2ccc(S(=O)(=O)Nc3ccccc3OC)cc2)n1 was tested. Which EC50 did it give?
**A.** > 40 µM (inactive)

**Q.** Which EC50 does the source give for O=S(=O)(Nc1cccc2c1CCCC2)c1ccc(Cl)cc1 here?
**A.** > 40 µM (inactive)

**Q.** CCCCN(CCCC)c1ccc(C(=O)c2ccccc2C(=O)O)c(O)c1 was tested. Which EC50 did it give?
**A.** > 40 µM (inactive)

**Q.** With O=C1c2ccccc2C(=O)N1c1ncc(Cc2ccc(Cl)cc2)s1 as the molecule, how does the EC50 read?
**A.** > 40 µM (inactive)

**Q.** With CCOc1ccc(OCC(=O)c2c(O)c3ccccc3oc2=O)cc1 as the molecule, how does the EC50 read?
**A.** > 40 µM (inactive)
